Laboratory results from publication PMC6658769, “First-Time-in-Human Study and Prediction of Early Bactericidal Activity for GSK3036656, a Potent Leucyl-tRNA Synthetase Inhibitor for Tuberculosis Treatment” (Antimicrobial Agents and Chemotherapy, 2019).
≈ marks a conversion by molar mass, not a printed value. Like-named read-outs stand apart in the source and are kept apart here. Marks after values point to notes of the source that are not given here.

Assays:
[1] = human, in vivo
[2] = human, in vivo; remark: listed apart in the source
[3] = system: panel of mammalian cell lines; experiment: Activity against a panel of mammalian cell lines; format: cell-based
[4] = system: M. tuberculosis fast-growing and slow-growing populations; experiment: PK/PD parameters estimated from acute and chronic mouse infection models; format: in vivo; details: for EC50: Mycobacterium tuberculosis
[5] = Food effect study (part A, high-fat meal); details: 5 mg; for half-life: human, plasma, po, t1/2, geometric LS mean
clinical = details: human, in vivo, po
[6] = Population PK model at completion of the study
OATP1B1 = target: T1, OATP1B1 (Homo sapiens, UniProt Q9Y6L6); experiment: Direct inhibition of OATP1B1; format: in vitro ADME; details: in vitro
T1 sequence (Q9Y6L6 1-691): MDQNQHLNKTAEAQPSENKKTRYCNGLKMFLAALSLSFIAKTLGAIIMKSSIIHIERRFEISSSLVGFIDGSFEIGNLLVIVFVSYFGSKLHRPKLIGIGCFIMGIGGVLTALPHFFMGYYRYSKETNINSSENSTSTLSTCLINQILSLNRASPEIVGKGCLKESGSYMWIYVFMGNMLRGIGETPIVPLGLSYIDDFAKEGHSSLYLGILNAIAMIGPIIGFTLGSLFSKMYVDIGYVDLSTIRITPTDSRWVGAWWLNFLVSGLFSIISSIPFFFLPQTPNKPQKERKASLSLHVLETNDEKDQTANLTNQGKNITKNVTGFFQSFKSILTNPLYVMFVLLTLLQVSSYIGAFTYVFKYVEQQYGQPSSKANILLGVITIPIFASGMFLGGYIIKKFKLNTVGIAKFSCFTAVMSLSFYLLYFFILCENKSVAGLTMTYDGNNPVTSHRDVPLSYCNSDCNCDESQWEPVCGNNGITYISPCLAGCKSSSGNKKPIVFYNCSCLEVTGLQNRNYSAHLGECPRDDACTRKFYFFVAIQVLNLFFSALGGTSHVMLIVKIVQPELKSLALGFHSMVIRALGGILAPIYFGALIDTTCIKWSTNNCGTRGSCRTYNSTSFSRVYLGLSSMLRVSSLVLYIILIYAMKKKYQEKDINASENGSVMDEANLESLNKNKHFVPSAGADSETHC

SMILES: NC[C@H]1OB(O)c2c(OCCO)ccc(Cl)c21 [GSK3036656, (S)-3-(aminomethyl)-4-chloro-7-(2-hydroxyethoxy)benzo[c][1,2]oxaborol-1(3H)-ol]
- dose-proportionality slope, Cmax ([1]; both): 1.19
- steady-state AUC relative to the target exposure for efficacy in humans (1,740 ng · h/ml) ([1]; both): approximately 2.5 fold
- accumulation of Cmax and AUC0–τ with repeated administration ([1]; both, 14 days): 2-3 fold
- dose-proportionality slope, Cmax ([1]; both, 14 days): 1.06
- RoCmax, geometric LS mean, Ref ([1]; 5 mg): 48.40 ng/mL
- RoCmax, geometric LS mean, Test ([1]; 5 mg): 97.04 ng/mL
- RoCmax, geometric LS mean, Ref ([1]; 15 mg): 178.79 ng/mL
- RoCmax, geometric LS mean, Test ([1]; 15 mg): 309.55 ng/mL
- Tmax difference (fed-fasted) [2]: 0.75^b h
- activity against a panel of mammalian cell lines [3]: inactivity
- EC50 ([4]; fast-growing population, SE = 13%, read-out: EC50-F in mouse): 0.0156 µg/mL (≈ 0.0606 µM)
- EC50 ([4]; slow-growing population, SE = 23%, read-out: EC50-S in mouse): 0.0317 µg/mL (≈ 0.123 µM)
- Emax-S (maximum killing rate against a slow-growing population) ([4]; fixed to estimated value from mouse infection models): 0.0037 (FIX)^b h^−1
- t1/2 ratio ([5]; fed vs fasted): 0.89
- half-life ([5]; Ref, 5 mg fasted, n = 6): 2320 min
- half-life ([5]; Test, 5 mg fed, n = 5): 2060 min
- AUC(0-inf) (clinical; both, 5 mg): 1400 ng·h/mL
- AUC(0-t) (clinical; both, 5 mg): 771 ng·h/mL
- Cmax (clinical; both, 5 mg): 49.1 ng/mL
- Tmax (clinical; both, 5 mg): 1.1 h
- AUC(0-inf) (clinical; both, 15 mg): 3800 ng·h/mL
- AUC(0-t) (clinical; both, 15 mg): 3250 ng·h/mL
- Cmax (clinical; both, 15 mg): 178 ng/mL
- AUC(0-inf) (clinical; 25 mg): 6560 ng·h/mL
- AUC(0-t) (clinical; 25 mg): 5690 ng·h/mL
- Cmax (clinical; 25 mg): 207 ng/mL
- Tmax (clinical; 25 mg): 1.1 h
- CL/F, bootstrap median estimate ([6]; bootstrap (1,000 runs)): 3.7 L/h
- IIV Q/F, bootstrap median estimate ([6]; bootstrap (1,000 runs)): 26.5
- IIV V2/F, bootstrap median estimate ([6]; bootstrap (1,000 runs)): 107
- IIV V3/F, bootstrap median estimate ([6]; bootstrap (1,000 runs)): 22.9
- Q/F, bootstrap median estimate ([6]; bootstrap (1,000 runs)): 63.1 L/h
- V2/F, bootstrap median estimate ([6]; bootstrap (1,000 runs)): 15.9 L
- V3/F, bootstrap median estimate ([6]; bootstrap (1,000 runs)): 149 L
- CL/F, estimate (%SE) ([6]; final population PK model): 3.69 (3) liters/h
- Q/F, estimate (%SE) ([6]; final population PK model): 63 (15) liters/h
- V2/F, estimate (%SE) ([6]; final population PK model): 14.9 (30) liters
- V3/F, estimate (%SE) ([6]; final population PK model): 150 (6) liters
- IIV Q/F, estimate (%SE) ([6]; random effects, final model): 27.3 (37)
- IIV V2/F, estimate (%SE) ([6]; random effects, final model): 111 (37)
- IIV V3/F, estimate (%SE) ([6]; random effects, final model): 23.3 (30)
- direct inhibition of OATP1B1 (OATP1B1): minimal evidence for direct inhibition
